Data on nine molecules can be found in US20240124504A1, “AROMATIC HETEROCYCLIC COMPOUND, AND PHARMACEUTICAL COMPOSITION AND APPLICATION THEREOF” (GT APEIRON THERAPEUTICS LIMITED, priority 2020, published 2024).

The target in data set [1] is CDK2/cyclinE1 complex (Homo sapiens, UniProt P24941). Put plainly: In-vitro enzymatic inhibitory activity testing, CDK2 inhibition assay (Caliper EZ Reader II). The data set is classed as biochemical. The following applies: CDK2/cyclinE1 0.5 nM, 180 min at 27° C. The essentials: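 CDK2/cyclinE1 (0.5 nM) phosphorylated 5-FAM-CDK7tide (2 μM) in MES buffer pH 6.5 with MgCl2, Tween 20 and BSA. Substrate and product were separated electrophoretically on a Caliper EZ Reader II. IC50 values came from nonlinear dose-response fits.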

The target in data set [2] is CDK7/cyclinH/MAT1 complex (Homo sapiens, UniProt P50613). Put plainly: In-vitro enzymatic inhibitory activity testing, CDK7 inhibition assay (Caliper EZ Reader II). Type of data set: biochemical. The following applies: CDK7/cyclinH/MAT1 6 nM, 180 min at 27° C. The essentials:
(§1)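 Enzyme preincubated 10 min with compound, then peptide substrate plus ATP added in 80 mM MES pH 6.5, 10 mM MgCl2 buffer; 180 min at 27 °C, stopped with EDTA.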

Data set [3] has as its target CDK9/cyclinT1 complex (Homo sapiens, UniProt P50750). Put plainly: In-vitro enzymatic inhibitory activity testing, CDK9 inhibition assay (Caliper EZ Reader II). As to conditions: CDK9/cyclinT1 8 nM, 180 min at 27° C. The data set is classed as biochemical. In short, it runs like this: as §1
Data set [4] can be described thus: Caco-2 membrane permeability and efflux rate. Type of data set: in vitro ADME. The following applies: human, Caco-2, Caco-2, 5 μM; for Papp B→A at 2 h, 5 μM: basal end to top end; for efflux ratio at 2 h, 5 μM: read-out: ER (efflux rate); for Papp A→B at 2 h, 5 μM: top end to basal end. The procedure: The recovered Caco-2 cell suspension was seeded into a […] plate and cultured for 14-18 days. After being cultured for 14 days, the cells were fused and differentiated to be ready for a transport experiment. The Caco-2 cell plate was taken out from the incubator. Stock solutions of a to-be-tested compound and a control compound were formulated with DMSO and diluted with an HBSS (10 mM HEPES, pH 7.4) buffer to a final concentration of 5 μM. A test compound solution and a control drug solution were added to each well (top end) of an insert culture plate, and the HBSS (10 mM HEPES, pH 7.4) buffer was added to each well of a test compound receiving plate (basal end). When measuring the transport rate of the compound from the basal end to the top end, the test compound solution and the control drug solution were added to each well of the receiving plate (basal end), the HBSS (10 mM HEPES, pH 7.4) buffer solution was added to each well (top end) of the insert culture plate for the test compound solution, and incubation was carried out for 2 hours in a CO2 incubator at 37° C. After the transport experiment was completed, vortexing was carried out for 10 minutes at 1000 rpm. After sample quenching at each time point, LC/MS/MS analysis was carried out. A fluorescence value was measured after a two-hour transport experiment, a lucifer yellow solution was added in a transwell chamber (top end), a transport buffer solution was added in the basal end, and incubation was carried out for 30 minutes in the CO2 incubator at 37° C. The solution was taken out directly from the top end and the basal end (using basolateral wells) and transferred to a new 96-well plate. A cell fluorescence value was measured by a microplate reader (to detect membrane integrity), an excitation wavelength was […], and an emission wavelength was […]. All data were calculated by using Microsoft Excel, and a peak area was calculated according to chromatograms. An apparent permeability coefficient (Papp, unit: 10-6, cm/s) and an efflux rate (ER) of the compounds in Caco-2 cells were calculated by the specific concentrations of a receiving end and an administering end.
In general terms: Caco-2 cells form a polarised layer with tight junctions and transporters.

Sequence of CDK7/cyclinH/MAT1 complex (P50613 whole entry, species assumed): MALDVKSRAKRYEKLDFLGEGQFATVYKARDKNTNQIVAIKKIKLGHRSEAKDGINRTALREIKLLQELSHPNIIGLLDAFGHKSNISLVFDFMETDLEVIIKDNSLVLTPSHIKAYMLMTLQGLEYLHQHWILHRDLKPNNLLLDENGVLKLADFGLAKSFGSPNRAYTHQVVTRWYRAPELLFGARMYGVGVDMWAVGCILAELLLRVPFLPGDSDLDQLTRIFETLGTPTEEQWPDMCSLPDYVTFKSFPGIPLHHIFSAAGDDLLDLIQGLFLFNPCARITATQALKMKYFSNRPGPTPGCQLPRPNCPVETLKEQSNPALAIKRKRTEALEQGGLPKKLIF
Sequence of CDK7/cyclinH/MAT1 complex (P51946 whole entry partner, species assumed): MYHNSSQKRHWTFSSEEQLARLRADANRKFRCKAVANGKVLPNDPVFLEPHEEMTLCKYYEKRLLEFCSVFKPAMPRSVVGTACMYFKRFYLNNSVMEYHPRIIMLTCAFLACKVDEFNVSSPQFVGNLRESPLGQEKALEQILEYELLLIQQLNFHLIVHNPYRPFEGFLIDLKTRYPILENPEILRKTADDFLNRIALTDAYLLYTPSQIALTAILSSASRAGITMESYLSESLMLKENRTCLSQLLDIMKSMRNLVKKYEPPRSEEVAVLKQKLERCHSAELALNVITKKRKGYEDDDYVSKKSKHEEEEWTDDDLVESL
Sequence of CDK7/cyclinH/MAT1 complex (P51948 whole entry partner, species assumed): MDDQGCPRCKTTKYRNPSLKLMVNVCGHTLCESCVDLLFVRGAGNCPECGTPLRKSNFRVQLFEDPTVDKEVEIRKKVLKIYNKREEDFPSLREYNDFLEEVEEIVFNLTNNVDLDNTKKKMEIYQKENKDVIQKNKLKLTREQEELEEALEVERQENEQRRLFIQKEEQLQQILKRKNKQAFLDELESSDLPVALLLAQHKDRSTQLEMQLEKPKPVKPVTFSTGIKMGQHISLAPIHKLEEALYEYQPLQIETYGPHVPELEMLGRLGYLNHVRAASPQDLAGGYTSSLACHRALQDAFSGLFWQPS
Sequence of CDK9/cyclinT1 complex (P50750 whole entry, species assumed, the tested form may be a part): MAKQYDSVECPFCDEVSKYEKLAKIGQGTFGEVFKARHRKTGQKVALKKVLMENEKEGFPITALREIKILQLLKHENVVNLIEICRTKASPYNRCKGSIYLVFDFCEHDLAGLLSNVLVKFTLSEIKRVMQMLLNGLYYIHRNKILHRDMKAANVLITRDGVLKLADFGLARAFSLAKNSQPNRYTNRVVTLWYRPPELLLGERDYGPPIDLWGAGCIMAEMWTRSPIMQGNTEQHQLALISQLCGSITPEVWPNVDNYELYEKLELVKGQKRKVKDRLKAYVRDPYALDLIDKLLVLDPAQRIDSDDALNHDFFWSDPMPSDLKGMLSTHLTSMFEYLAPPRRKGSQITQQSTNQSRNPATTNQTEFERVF
Sequence of CDK9/cyclinT1 complex (O60563 whole entry partner, species assumed, the tested form may be a part): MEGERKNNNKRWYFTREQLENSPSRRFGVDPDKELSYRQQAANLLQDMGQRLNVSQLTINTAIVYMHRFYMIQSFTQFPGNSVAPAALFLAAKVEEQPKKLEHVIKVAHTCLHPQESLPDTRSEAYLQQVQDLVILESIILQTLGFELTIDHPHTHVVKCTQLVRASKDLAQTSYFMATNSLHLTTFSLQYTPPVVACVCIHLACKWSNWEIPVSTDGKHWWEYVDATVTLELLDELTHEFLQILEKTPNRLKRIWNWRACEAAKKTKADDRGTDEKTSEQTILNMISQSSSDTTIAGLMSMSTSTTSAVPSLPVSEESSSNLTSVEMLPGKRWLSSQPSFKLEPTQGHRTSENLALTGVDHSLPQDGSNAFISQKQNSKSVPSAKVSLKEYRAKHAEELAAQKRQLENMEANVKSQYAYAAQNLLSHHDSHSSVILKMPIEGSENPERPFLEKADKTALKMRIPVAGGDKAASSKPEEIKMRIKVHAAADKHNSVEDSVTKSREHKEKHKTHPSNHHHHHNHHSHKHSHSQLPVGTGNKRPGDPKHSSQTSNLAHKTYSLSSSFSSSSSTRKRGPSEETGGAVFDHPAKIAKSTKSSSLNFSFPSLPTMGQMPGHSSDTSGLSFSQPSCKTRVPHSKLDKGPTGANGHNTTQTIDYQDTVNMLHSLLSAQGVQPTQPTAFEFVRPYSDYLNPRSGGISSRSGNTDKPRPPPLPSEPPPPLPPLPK

For the molecule `CP(C)(=O)c1cccc2c(-c3nc(NC4(CO)CC(F)C4)ncc3C(F)(F)F)c[nH]c12` (stereo not drawn) [Compound 105, (3-(2-((3-fluoro-1-(hydroxymethyl)cyclobutyl)amino)-5-(trifluoromethyl)pyrimidin-4-yl)-1H-indole-7-yl)dimethylphosphine oxide], in data set [1], the IC50 (in general, the concentration needed to halve the response being measured) fell in the range of 5 to 50 µM. The same molecule came in with an IC50 in data set [2] of 0.02 to 0.2 µM. The molecule further registered an IC50 in data set [3] of more than 50 µM. For the same molecule, in data set [4], the Papp B→A (usually the apparent permeability from the basolateral to the apical side of a cell layer) at 2 h, 5 μM turned out to be 21.9 ×10⁻⁶ cm/s; the efflux ratio at 2 h, 5 μM was 7.32; the apparent permeability from apical to basolateral (Papp A→B) (in general, the apparent permeability from the apical to the basolateral side of a cell layer) at 2 h, 5 μM turned out to be 2.99 ×10⁻⁶ cm/s.
In data set [1], `CP(C)(=O)c1cccc2c(-c3nc(NC4(CO)CCC4)ncc3C(F)(F)F)c[nH]c12` [Compound 168, (3-(2-((1-(hydroxymethyl)cyclobutyl)amino)-5-(trifluoromethyl)pyrimidin-4-yl)-1H-indole-7-yl)dimethylphosphine oxide] returned an IC50 of 5 to 50 µM. This molecule also gave an IC50 in data set [2] of less than 0.02 µM. In addition, the IC50 in data set [3] is more than 50 µM. In data set [4], the Papp B→A at 2 h, 5 μM was 17.1 ×10⁻⁶ cm/s; the efflux ratio at 2 h, 5 μM turned out to be 2.14; the Papp A→B at 2 h, 5 μM stood at 7.99 ×10⁻⁶ cm/s.
`CP(C)(=O)c1cccc2c(-c3nc(NCC4CC(O)C4)ncc3C(F)(F)F)c[nH]c12` (stereo not drawn) [Compound 126, (3-(2-(((3-hydroxycyclobutyl)methyl)amino)-5-(trifluoromethyl)pyrimidin-4-yl)-1H-indole-7-yl)dimethylphosphine oxide] yielded an IC50 in data set [1] of 0.2 to 5 µM. Moreover, the IC50 in data set [2] is less than 0.02 µM. In data set [3], the half-inhibitory concentration (IC50) was more than 50 µM. In data set [4], the Papp B→A at 2 h, 5 μM came to 24.6 ×10⁻⁶ cm/s; the efflux ratio at 2 h, 5 μM was 7.41; the Papp A→B at 2 h, 5 μM worked out at 3.32 ×10⁻⁶ cm/s.
Consider `CC(O)[C@H](C)Nc1ncc(C(F)(F)F)c(-c2c[nH]c3c(P(C)(C)=O)cccc23)n1` (single isomer, unassigned) [Compound 129], for which, in data set [1], the IC50 lay in the range of 5 to 50 µM. In addition, the IC50 in data set [2] was less than 0.02 µM. This molecule had an IC50 in data set [3] of more than 50 µM. In data set [4], the Papp B→A at 2 h, 5 μM was 32.4 ×10⁻⁶ cm/s; the efflux ratio at 2 h, 5 μM worked out at 6.76; the Papp A→B at 2 h, 5 μM was 4.8 ×10⁻⁶ cm/s.
For the molecule `CC(O)[C@H](C)Nc1ncc(C(F)(F)F)c(-c2c[nH]c3c(P(C)(C)=O)cccc23)n1` (single isomer, unassigned) [Compound 130], the results for the IC50 in data set [1], in data set [2] and in data set [3] were 5 to 50 µM, less than 0.02 µM and more than 50 µM, respectively.
The like results for `CC(CO)CNc1ncc(C(F)(F)F)c(-c2c[nH]c3c(P(C)(C)=O)cccc23)n1` (single isomer, unassigned) [Compound 150] were, in that order, 0.2 to 5 µM, less than 0.02 µM and more than 50 µM.
Consider `C[C@@H](CO)Nc1ncc(Cl)c(-c2c[nH]c3c(P(C)(C)=O)cccc23)n1` [Compound 103, (S)-(3-(5-chloro-2-((1-hydroxypropan-2-yl)amino)pyrimidin-4-yl)-1H-indole-7-yl)dimethylphosphine oxide], for which the IC50 in data set [1] is 0.2 to 5 µM; in data set [2], 0.02 to 0.2 µM; in data set [3] it was more than 50 µM. The molecule also gave a Papp B→A at 2 h, 5 μM in data set [4] of 36.1 ×10⁻⁶ cm/s. Besides, in data set [4], the efflux ratio at 2 h, 5 μM came to 5.38. This molecule displayed a Papp A→B at 2 h, 5 μM in data set [4] of 6.7 ×10⁻⁶ cm/s.
For `CP(C)(=O)c1cccc2c(-c3nc(NCC4CC4CO)ncc3C(F)(F)F)c[nH]c12` (single isomer, unassigned) [Compound 144], the IC50 in data set [1] is 5 to 50 µM; in data set [2] it was 0.02 to 0.2 µM; in data set [3] it was more than 50 µM.
For `CP(C)(=O)c1cccc2c(-c3nc(NC4(CO)CCOC4)ncc3C(F)(F)F)c[nH]c12` (single isomer, unassigned) [Compound 119], in that order: 5 to 50 µM, 0.02 to 0.2 µM and more than 50 µM.
